Test results reported in ChEMBL document CHEMBL4311969, “Polygala tenuifolia-Acori tatarinowii herbal pair as an inspiration for substituted cinnamic α-asaronol esters: Design, synthesis, anticonvulsant activity, and inhibition of lactate dehydrogenase study” (Eur J Med Chem, 2019).
Several values for one entry are separate records, joined by “and”; a condition that tells them apart may be missing. Equal values may be shown once. Activity calls are given as the source filed them. The rule behind the calls is not given here.

Columns and labels:
[1] = tested on: Mus musculus; experiment: Anticonvulsant activity in Kunming mouse assessed as reduction in Sc3-MP-induced clonic seizure rate at 300 mg/kg, ip administered 0.5 hrs before Sc3-MP stimulation relative to control; assay type: functional; set-up: scale not given: the % may be the effect or the level left
[2] = tested on: Mus musculus; experiment: Anticonvulsant activity in Kunming mouse assessed as reduction in Sc3-MP-induced tonic seizure rate at 300 mg/kg, ip administered 0.5 hrs before Sc3-MP stimulation relative to control; assay type: functional; set-up: scale not given: the % may be the effect or the level left
[3] = tested on: Mus musculus; experiment: Anticonvulsant activity in Kunming mouse assessed as MES-induced hind limb extension at 100 mg/kg, ip administered 0. 5 to 2 hrs before MES stimulation; assay type: functional, organism-based
[4] = tested on: Mus musculus; experiment: Anticonvulsant activity in Kunming mouse assessed as MES-induced hind limb extension at 100 mg/kg, ip administered 3 hrs before MES stimulation; assay type: functional, organism-based
[5] = Neurotoxicity against Kunming mouse assessed as time remained in rod at 100 mg/kg, ip administered 0.5 to 2 hrs by rotarod test; assay type: toxicity, organism-based; conditions: in vivo
[6] = tested on: Mus musculus; experiment: Anticonvulsant activity in Kunming mouse assessed as MES-induced hind limb extension at 50 mg/kg, ip administered 0.5 and 2 hrs before MES stimulation relative to control; assay type: functional
[7] = tested on: Mus musculus; experiment: Anticonvulsant activity in Kunming mouse assessed as reduction in ScPTZ-induced seizure at 300 mg/kg, ip administered 0.25 to 2 hrs before ScPTZ stimulation relative to control; assay type: functional; set-up: scale not given: the % may be the effect or the level left
[8] = tested on: Mus musculus; experiment: Anticonvulsant activity in Kunming mouse assessed as reduction in ScPTZ-induced seizure at 100 mg/kg, ip administered 0.25 to 2 hrs before ScPTZ stimulation relative to control; assay type: functional
[9] = tested on: Mus musculus; experiment: Anticonvulsant activity in Kunming mouse assessed as reduction in ScPTZ-induced seizure at 100 mg/kg, ip administered 0.25 and 1 hrs before ScPTZ stimulation relative to control; assay type: functional; set-up: scale not given: the % may be the effect or the level left
[10] = tested on: Mus musculus; experiment: Anticonvulsant activity in Kunming mouse assessed as reduction in ScPTZ-induced clonic seizure at 300 mg/kg, ip administered 0.5 hrs before ScPTZ stimulation relative to control; assay type: functional; set-up: scale not given: the % may be the effect or the level left
[11] = tested on: Mus musculus; experiment: Anticonvulsant activity in Kunming mouse assessed as reduction in ScPTZ-induced clonic seizure at 100 mg/kg, ip administered 0.5 hrs before ScPTZ stimulation relative to control; assay type: functional; set-up: scale not given: the % may be the effect or the level left
[12] = tested on: Mus musculus; experiment: Anticonvulsant activity in Kunming mouse assessed as reduction in ScPTZ-induced tonic seizure rate at 300 mg/kg, ip administered 0.5 hrs before ScPTZ stimulation relative to control; assay type: functional; set-up: scale not given: the % may be the effect or the level left
[13] = tested on: Mus musculus; experiment: Anticonvulsant activity in Kunming mouse assessed as reduction in ScPTZ-induced tonic seizure rate at 100 mg/kg, ip administered 0.5 hrs before ScPTZ stimulation relative to control; assay type: functional; set-up: scale not given: the % may be the effect or the level left
[14] = tested on: Mus musculus; experiment: Anticonvulsant activity in Kunming mouse assessed as reduction in ScPTZ-induced mortality rate at 300 mg/kg, ip administered 0.5 hrs before ScPTZ stimulation relative to control; assay type: functional; set-up: scale not given: the % may be the effect or the level left
[15] = tested on: Mus musculus; experiment: Anticonvulsant activity in Kunming mouse assessed as reduction in Sc3-MP-induced seizure at 300 mg/kg, ip administered 0.25 and 1 hrs before Sc3-MP stimulation relative to control; assay type: functional, organism-based
[16] = tested on: Mus musculus; experiment: Anticonvulsant activity in Kunming mouse assessed as reduction in Sc3-MP-induced seizure at 300 mg/kg, ip administered 0.5 hrs before Sc3-MP stimulation relative to control; assay type: functional; set-up: scale not given: the % may be the effect or the level left
[17] = tested on: Mus musculus; experiment: Anticonvulsant activity in Kunming mouse assessed as reduction in Sc3-MP-induced mortality rate at 300 mg/kg, ip administered 0.5 hrs before Sc3-MP stimulation relative to control; assay type: functional; set-up: scale not given: the % may be the effect or the level left
[18] = tested on: Mus musculus; experiment: Anticonvulsant activity in ip dosed Kunming mouse assessed as MES-induced hind limb extension administered 0.5 hrs before MES stimulation; assay type: functional
[19] = tested on: Mus musculus; experiment: Anticonvulsant activity in ip dosed Kunming mouse assessed as reduction in ScPTZ-induced seizure administered 0.5 hrs before ScPTZ stimulation; assay type: functional
[20] = tested on: Mus musculus; experiment: Anticonvulsant activity in Kunming mouse assessed as reduction in Sc3-MP-induced seizure ip dosed measured at 0.5 hrs before Sc3-MP stimulation; assay type: functional
[21] = tested on: Mus musculus; experiment: […] activity in ip dosed Kunming mouse assessed as reduction in formalin-induced paw licking administered 0.5 hrs before formalin stimulation; assay type: functional
[22] = Neurotoxicity against ip dosed Kunming mouse assessed as time remained in rod measured at 0.5 hrs by rotarod test; assay type: toxicity, organism-based; conditions: in vivo
[23] = Protective index, ratio of TD50 for neurotoxicity against ip dosed Kunming mouse assessed as time remained in rod measured at 0.5 hrs by rotarod test to ED50 for anticonvulsant activity in ip dosed Kunming mouse assessed as MES-induced hind limb extension administered 0.5 hrs; assay type: toxicity, organism-based; conditions: in vivo, read-out: PI
[24] = (§1) Protective index, ratio of TD50 for neurotoxicity against ip dosed Kunming mouse assessed as time remained in rod measured at 0.5 hrs by rotarod test to ED50 for anticonvulsant activity in ip dosed Kunming mouse assessed as reduction in ScPTZ-induced seizure administered 0.5 hrs before ScPTZ stimulation; assay type: toxicity, organism-based; conditions: in vivo, read-out: PI
[25] = as §1, with “Sc3-MP-induced” for “ScPTZ-induced”, “Sc3-MP” for “ScPTZ”; assay type: toxicity, organism-based; conditions: in vivo, read-out: PI
[26] = as §1, with “formalin-induced paw licking” for “ScPTZ-induced seizure”, “formalin” for “ScPTZ”; assay type: toxicity, organism-based; conditions: in vivo, read-out: PI
[27] = species on record: Homo sapiens; experiment: Inhibition of human LDH1 at 0.5 mM using sodium pyruvate as substrate by UV-VIS spectrophotometry method relative to control
[28] = species on record: Homo sapiens; experiment: Inhibition of human LDH5 at 0.5 mM using sodium pyruvate as substrate by UV-VIS spectrophotometry method relative to control
[29] = tested on: Mus musculus; experiment: Anticonvulsant activity in Kunming mouse assessed as MES-induced hind limb extension at 100 mg/kg, ip administered 0. 5 to 4 hrs before MES stimulation relative to control; assay type: functional
[30] = tested on: Mus musculus; experiment: Anticonvulsant activity in Kunming mouse assessed as MES-induced hind limb extension at 50 mg/kg, ip administered 0.5 to 4 hrs before MES stimulation relative to control; assay type: functional
[31] = tested on: Mus musculus; experiment: Anticonvulsant activity in Kunming mouse assessed as MES-induced hind limb extension at 100 mg/kg, ip administered 0. 5 hrs before MES stimulation relative to control; assay type: functional

SMILES | Activity [1] [%] | Activity [2] [%] | Activity [3] | Activity [5] | Activity [6] | Activity [7] [%] | Activity [8] | Activity [9] [%] | Activity [10] [%] | Activity [11] [%] | Activity [12] [%] | Activity [13] [%] | ED50 [18] | ED50 [19] | ED50 [20] | ED50 [21] | TD50 at 0.5 h [22] | selectivity ratio at 0.5 h [23] | selectivity ratio at 0.5 h [24] | selectivity ratio at 0.5 h [25] | also measured
COc1cc(OC)c(OC)cc1/C=C/COC(=O)/C=C/c1cccc(Br)c1 | 100 | 50 | Active | Non-Toxic | inactive | 50 | inactive | 75 | 100 | 100 | 25 | 100 | 175 µmol/kg and 75.7 mg/kg | > 200 mg/kg and > 462 µmol/kg | 215 mg/kg and 497 µmol/kg | 113 mg/kg and 260 µmol/kg | > 2310 µmol/kg and > 1000 mg/kg | > 13.2 | 5 | > 4.6 | Activity [4]: Active; Activity [14]: 0%; Activity [15]: Active; Activity [16]: 50%; Activity [17]: 0%; selectivity ratio at 0.5 h [26]: > 8.9; inhibition [27]: < 5%; inhibition [28]: < 9%; Activity [29]: 25 - 100%
COc1cc(OC)c(OC)cc1/C=C/COC(=O)/C=C/c1ccccc1Cl | 100 | 50 | Active | Non-Toxic | 75% | 50 | inactive | 75 | 100 | 100 | 25 | 100 | 151 µmol/kg and 58.7 mg/kg | 150 mg/kg and 385 µmol/kg | 248 mg/kg and 639 µmol/kg | 101 mg/kg and 260 µmol/kg | > 2570 µmol/kg and > 1000 mg/kg | > 17 | > 6.7 | > 4 | Activity [4]: Active; Activity [30]: 50%; Activity [14]: 0%; Activity [15]: Active; Activity [16]: 50%; Activity [17]: 0%; selectivity ratio at 0.5 h [26]: > 9.9; inhibition [27]: < 5%; inhibition [28]: < 9%; Activity [29]: 25 - 100%
COc1cc(OC)c(OC)cc1/C=C/COC(=O)/C=C/c1ccc(OC)c(OC)c1OC | 100 | 75 | Active | Non-Toxic | 50% | 50 | inactive | 75 | 100 | 100 | 25 | 100 | 33.4 mg/kg and 75.1 µmol/kg | 203 mg/kg and 456 µmol/kg | > 300 mg/kg and > 675 µmol/kg | 78.4 mg/kg and 176 µmol/kg | > 1000 mg/kg and > 2250 µmol/kg | > 29.9 | > 4.9 | 3.3 | Activity [30]: 50%; selectivity ratio at 0.5 h [26]: > 12.8; inhibition [27]: 7%; inhibition [28]: 8%; Activity [31]: 100%; Activity [29]: 25 - 100%
